Source: patent US20030180735A1, “Screening method” (priority 1999, published 2003)
“Also recorded” adds a separate entry of the source.

Legend:
Type in all cases: cell-based
HeLa cells = details: agent plus cisplatin 10 μg/ml, overnight, crystal violet
Protocol: (§1) In our system, cells are cultured in 96 well plates in 100 μl of culture medium and are treated in ways known to induce apoptosis. Following an indicated period of time, 10 μl MTT stock solution (5 mg/mi) is added to each culture being assayed and incubated at 37° C. for 4 h. At the end of the incubation period the converted dye is solubilised with acidic-isopropanol (0.04N HCL. Absorbance of converted dye is measured at a wavelength of 570 nm.
The following example describes a method to analyse viability of adherent cells, such as HeLa, using chemical stain Crystal Violet. Adherent cells are cultured in the presence of known agents to induce/ modulate the apoptotic process. After a suitable period of time, supernatants are removed by inverting and flicking the plate. Wells are washed twice with PBS and remaining adherent cells are fixed with 100% EtOH and air-dried. To each well is added 100 μl of 1% aqueous Crystal Violet Solution (Sigma). Plates are then incubated at room temperature (RT) for 5 min before washing in tap water. Wells are solubilised in 33% acetic acid and optical density is measured at 570 nm using a plate reader.
HeLa cells are plated in full culture medium at a concentration of 2×10^4 cells/well of 96 well plate. […] Cells are cultured overnight at 37° C. before analysing for apoptosis using either MTT or crystal violet.
HeLa cells are plated in full culture medium at a concentration of 2×10^4 cells/well of 96 well plate. […] Cells are cultured overnight at 37° C. before analysing for apoptosis using crystal violet.
HeLa cells are plated into 96 well plate at a concentration of 2×10^4/well and allowed to adhere for 4 hours Culture medium is then replaced with fresh medium containing the indicated concentrations of TNFα together with 5 μg/ml cycloheximide. Cultures are maintained for a further 18 hours, before measuring apoptosis with crystal violet and reading @570 nm in a plate reader.
Cells are cultured for a further 18 h before staining the remaining adherent cells with crystal violet and measuring absorbance at 570 nm.

[1] = tested on: primary human neutrophils; test: Neutrophil survival/viability by MTT assay
Protocol: primary human neutrophils are isolated and purified from peripheral blood of normal healthy individuals. Neutrophils are resuspended in serum containing culture medium together with various amounts of GM-CSF at a density of 2×10^6/ml, with 100 μl plated into a 96 well plate and cultured for 18 h at 37° C. After this time 10 μl of MTT (5 mg/ml) is added to the cultures and incubated for a further 4 h at 37° C. before solubilisation of the purple coloured formazan with acidic isopropanol. Optical densities are read at 570 nm using a plate reader.
A time course of GM-CSF additions was carried out to neutrophils in order to determine up to what stage GM-CSF can induce survival in neutrophils. primary human neutrophils are isolated and purified from peripheral blood of normal healthy individuals. Neutrophils are resuspended in serum containing culture medium at a concentration of 2×10^6/ml, with 100 μl/well plated into a 96 well plate and culture at 37° C. commenced. At the indicated time points GM-CSF (50U/ml) was added to the neutrophils and culture continued until 20 h post initiation of culture. After this time, 10 μl of MTT (5 mg/ml) was added to the cultures and incubated for a further 4 h at 37° C. before solubilisation of the purple coloured formazan with acidic isopropanol. Optical densities were read at 570 nm using a plate reader. […] However, if administration of the cytokine is delayed for 20 h post isolation, the protective effect is zero in 24 h cultures.
We performed timed additions of anti-GM-CSF antibody to neutrophils in order to determine how immediate the anti-apoptotic effects induced by GM-CSF occur. primary human neutrophils are isolated and purified from peripheral blood of normal healthy individuals. […] Optical densities are read at 570 nm using a plate reader. […]
as §1, with “Following an indicated period of time, 10 μl MTT stock solution (5 mg/mi) is added to each culture being assayed and incubated at 37° C. for 4 h.” left out

[2] = tested on: primary human neutrophils; test: Neutrophil gene expression, Incyte LifeGrid microarray
Protocol: Primary human neutrophils are isolated and purified from peripheral blood of normal healthy individuals. Neutrophils are resuspended in serum containing culture medium together with GM-CSF (50U) at a concentration of 2×10^6/ml, and cultured for 0 h (control), 2 h, 4 h and 6 h at 37° C. After these times, total cellular RNA is extracted and this used as the starting material for analysis of gene expression changes.
Primary human neutrophils are isolated and purified from peripheral blood of normal healthy individuals. Neutrophils are resuspended in serum containing culture medium together with GM-CSF (50U) at a concentration of 2×10^6/ml, and cultured for 0 h (control), 2 h, 4 h and 6 h at 37° C. After these times, total cellular RNA is extracted and this used as the starting material for analysis of gene expression changes using the Incyte “LifeGrid” microarray. Following cluster analysis, a cluster of genes are identified that contained several genes involved in neutrophil survival and whose transcription is up—regulated upon GM-CSF treatment. This cluster, which included BcI2-A1 (a ‘known’ antiapoptotic neutrophil BCL2 family member) is termed the ‘survival’ cluster (See FIG. 14). Among these genes, one group that could be clearly identified are those genes whose protein products are involved in protecting the cell against an increased oxidative environment (FIG. 14). […] Since all these gene products are attenuators of the oxidative cellular response it is indicative that GM-CSF protects the cell by reducing the harmful effects of reactive oxygen species. The corollary therefore is that spontaneous apoptosis must be due to an uncontrolled oxidative environment within the cell. Furthermore, this reaffirms that the neutrophils response to reactive oxidative species is […] of the glutathione system.
Methodology is as described by manufacturer, for Human LifeGrid™ arrays. Essentially, total cellular RNA (1 μg to 20 μg) or polyA+ mRNA (100 ng to 5 μg) is incubated with an oligo (dT) primer. Primed RNA is reverse transcribed to first stand cDNA in a reaction containing M-MLV reverse transcriptase (RT; alternatively Superscript II is used (Life Sciences)), RT buffer, dNTPs and [α-^33P] dCTP (2000-4000 Ci/mmol) at 42° C. for 1 to 5 h.
Methodology is as described by manufacturer, for Human LifeGrid™ arrays.

[3] = GM-CSF (50U), vs control levels

Molecule	HeLa cell sensitivity to cisplatin (HeLa cells)	effect on GM-CSF mediated survival ([1]; BSO 1 or 4 mM, GM-CSF 5 u/ml, 18 h)	expression of catalase [2, 3]	expression of ferritin [2, 3]	expression of mitochondrial superoxide dismutase [2, 3]	transcription of fructose 1,6 bisphosphatase ([2]; GM-CSF, 6 hour period)	transcription of phosphofructokinase 1 ([2]; GM-CSF, 6 hour period)	relation of survival to GM-CSF concentration (MTT) ([1]; 18 h culture)	protective effect when GM-CSF addition is delayed 20 h post isolation ([1]; GM-CSF 50U/ml, 24 h cultures)
CC(=O)N[C@@H](CS)C(=O)O [NAC]	decreased; also recorded: desensitised towards cisplatin	–	–	–	–	–	–	–	–
CCCCS(=N)(=O)CCC(N)C(=O)O (stereo not shown) [BSO, buthionine sulphoximine]	increase the sensitivity; also recorded: dramatically sensitises HeLa cell towards cisplatin	did not impact on GM-CSF to mediate survival	–	–	–	–	–	–	–
GM-CSF: well-characterised neutrophil growth/survival factor (cytokine)	–	–	increased expression	increased expression	increased expression	upregulates	down regulated	direct correlation between survival and concentrations of GM-CSF	zero and not sufficient to mediate survival
